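Exposure lasted 48 hours, with cells grown in 96-well plates and compounds tested at five concentrations. GI50 is the concentration that inhibits growth by half.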 Activity calls are given as the source filed them. Cut-off read from the data, not from the text of the source: active = GI50 up to about 1.1 µM and inactive = higher. Some results are limits rather than exact numbers.

The text below walks through data of ChEMBL document CHEMBL1201862, “PubChem BioAssay data set” (2004).

Holding throughout (test): NCI-60 cell line screen, 48 h
Assay [1] has as its system HCT-15.
Assay [2] concerns A498.
Assay [3] relates to Malme-3M.
Assay [4] concerns LOX IMVI.
Assay [5] deals with K562.
Assay [6] relates to OVCAR-4.
Assay [7] has as its system MDA-MB-231.
Assay [8] concerns ACHN.
The test system of assay [9] is PC-3.
Assay [10] relates to KM12.
Assay [11] concerns HL-60.
The subject of assay [12] is DU-145.
Assay [13] has as its system NCI-H23.
Assay [14] concerns M14.
The test system of assay [15] is SK-MEL-5.
Assay [16] has as its system NCI-H522.
Assay [17] concerns MDA-N.
The test system of assay [18] is OVCAR-8.
Assay [19] has as its system SK-MEL-2.
For assay [20], the system named is HCT-116.

In the case of `COC(=O)CN1c2nc(C#N)c(C#N)nc2N(CC(=O)OC)c2nc(C#N)c(C#N)nc21`, the GI50 is 3.05 µM in [1]; 15.3 µM (inactive) in assay [2]; 0.301 µM (active) in assay [3]; 2.2 µM (inactive) in assay [4]; 1.51 µM (inactive) in [5]; 3.1 µM (inactive) in assay [6]. Moreover, the GI50 in [7] is 6.73 µM (inactive); in assay [8], 1.59 µM (inactive); in assay [9], 4.15 µM (inactive); in [10] it was 8.22 µM (inactive); in assay [11], 2.26 µM (inactive); in assay [12] it was 1.43 µM (inactive). The GI50 in [13] is 2.99 µM (inactive); in [14], 1.84 µM (inactive); in [15], 5.4 µM (inactive); in [16], 0.863 µM (active); in assay [17] it was 3.53 µM (inactive); in assay [18] it was 2.37 µM (inactive). The values for the GI50 in [19] and in assay [20] were 8.81 µM (inactive) and 1.58 µM (inactive), respectively.

Regarding `CCOC(=O)/C=C(\C(=O)OCC)n1ccc(=O)n(Cc2cn(COCCOC(C)=O)nn2)c1=O`, the GI50 in [1] is 18.9 µM; in [2] it was > 54.3 µM (inactive); in [3], 15.2 µM (inactive); in [4], 17.9 µM (inactive); in assay [5], 24 µM (inactive); in [6], 19.5 µM (inactive). The GI50 in [7] was 20.2 µM (inactive); in [8], 7.05 µM (inactive); in assay [9], 20.3 µM (inactive); in assay [10], 29.6 µM (inactive); in [11], 12.7 µM (inactive); in [12], 38.8 µM (inactive). The GI50 is 17.7 µM (inactive) in assay [13]; 39.8 µM (inactive) in assay [14]; 21.5 µM (inactive) in assay [15]; 2.71 µM (inactive) in [16]; 35.2 µM (inactive) in [17]; 16.3 µM (inactive) in assay [18]. The GI50 in assay [19] is 20.8 µM (inactive); in [20], 16.3 µM (inactive).

On to `COc1ccc2nc3ccccc3c(NCCN(C)CCCl)c2c1`, for which the GI50 in assay [1] was 0.515 µM; in assay [2], 0.984 µM (active); in [3], 0.399 µM (active); in [4], 0.336 µM (active); in [5], 0.337 µM (active); in assay [6], 0.908 µM (active). In addition, the GI50 in assay [7] is 1.15 µM (inactive); in [8], 0.24 µM (active); in [9], 0.205 µM (active); in assay [10] it was 0.807 µM (active); in assay [11] it was 0.259 µM (active); in assay [12], 1.12 µM (active). Moreover, the GI50 in assay [13] was 0.604 µM (active); in [14], 0.843 µM (active); in [15], 0.644 µM (active); in assay [16], 0.282 µM (active); in assay [17], 0.344 µM (active); in assay [18], 0.431 µM (active). The GI50 in assay [19] is 0.847 µM (active); in assay [20] it was 0.249 µM (active).

For the compound `C=C(c1nc2ccc(Cl)cc2[nH]c1=O)C(O)c1ccc(C(O)C(=O)c2nc3ccc(Cl)cc3[nH]c2=O)cc1` (stereo not given), the GI50 is 74.5 µM in assay [1]; > 100 µM (inactive) in assay [2]; > 100 µM (inactive) in assay [3]; > 83.6 µM (inactive) in [4]; 49 µM (inactive) in assay [5]; > 100 µM (inactive) in [6]. Also, the GI50 was > 100 µM (inactive) in [7]; 61.7 µM (inactive) in assay [8]; 87.9 µM (inactive) in assay [9]; 60.1 µM (inactive) in assay [10]; 5.04 µM (inactive) in assay [11]; > 100 µM (inactive) in assay [12]. In addition, the GI50 is > 100 µM (inactive) in assay [13]; > 100 µM (inactive) in assay [14]; > 95.1 µM (inactive) in assay [15]; 47.1 µM (inactive) in assay [16]; > 100 µM (inactive) in [17]; > 100 µM (inactive) in [18]. Further, the GI50 in [19] and in [20] was > 100 µM (inactive) throughout.

Take `O=c1ccc2[n+]([O-])c3ccc(O)cc3oc-2c1` [RESAZURIN]: the GI50 in [1] is 5.15 µM; in assay [2], 39.2 µM (inactive); in assay [3], 4.02 µM (inactive); in assay [4] it was 3.44 µM (inactive); in assay [5], 10.5 µM (inactive); in assay [6], 23.4 µM (inactive). Moreover, the GI50 is 29.6 µM (inactive) in [7]; 5.65 µM (inactive) in [8]; 7.23 µM (inactive) in assay [9]; 5.19 µM (inactive) in [10]; 23.1 µM (inactive) in assay [11]; 15.9 µM (inactive) in [12]. Further, the GI50 was 2.56 µM (inactive) in [13]; 7.83 µM (inactive) in assay [14]; 2.72 µM (inactive) in assay [15]; 12.1 µM (inactive) in [16]; 1.84 µM (inactive) in [17]; 15 µM (inactive) in assay [18]. Also, the GI50 is 10 µM (inactive) in assay [19] and 16.7 µM (inactive) in [20].

For the compound `CC(C)C(Nc1ncnc2nc[nH]c12)C(=O)O` (stereo not given), the GI50 was above 100 µM in assay [1]; > 100 µM (inactive) in [2]; > 100 µM (inactive) in assay [3]; > 100 µM (inactive) in assay [4]; > 100 µM (inactive) in assay [5]; > 100 µM (inactive) in assay [6]. In addition, the GI50 in assay [7], in assay [8], in assay [9], in assay [10], in assay [11] and in assay [12] was > 100 µM (inactive) each time. Also, the GI50 in [13], in assay [14], in assay [15], in assay [16], in assay [17] and in [18] was > 100 µM (inactive) in each case. Moreover, the GI50 in assay [19] and in assay [20] was > 100 µM (inactive) in each case.

For `NC(=O)C1CCCN1C(=O)N(CCCl)N=O` (stereo not given), the GI50 is above 100 µM in [1]; > 100 µM (inactive) in [2]; > 100 µM (inactive) in [3]; > 100 µM (inactive) in assay [4]; > 100 µM (inactive) in assay [5]; > 100 µM (inactive) in assay [6]. Further, the GI50 in assay [7], in assay [8], in [9], in [10], in assay [11] and in [12] was > 100 µM (inactive) throughout. The GI50 in assay [13], in assay [14], in [15], in assay [16], in assay [17] and in assay [18] was > 100 µM (inactive) each time. Also, the GI50 in assay [19] and in [20] was > 100 µM (inactive) throughout.

As for `C=C1COC(O)(C2OCOC(C3CC(=O)NC(=O)C3)C2O)C1C` (stereo not given), the GI50 is 0.00478 µM in assay [1]; 0.0018 µM (active) in [2]; 0.00221 µM (active) in assay [3]; 0.00158 µM (active) in assay [4]; 0.00316 µM (active) in assay [5]; 0.00342 µM (active) in assay [6]. The GI50 in assay [7] was 0.00847 µM (active); in assay [8], 0.00533 µM (active); in assay [9] it was 0.0031 µM (active); in [10], 0.00287 µM (active); in assay [11], 0.00303 µM (active); in assay [12], 0.00361 µM (active). Also, the GI50 was 0.00381 µM (active) in assay [13]; 0.00442 µM (active) in assay [14]; 0.00126 µM (active) in [15]; 0.000716 µM (active) in [16]; 0.0034 µM (active) in [17]; 0.00512 µM (active) in assay [18]. Also, the results for the GI50 in assay [19] and in assay [20] were 0.0016 µM (active) and 0.00348 µM (active), respectively.

Regarding `CCC(=O)Nc1cccc(/N=C/c2ccc(OC(=O)/C=C\c3ccccc3)cc2)c1`, the GI50 in assay [1] is 35.8 µM; in [2], > 75 µM (inactive); in assay [3], 40.4 µM (inactive); in assay [4], 40.6 µM (inactive); in assay [5], 39.3 µM (inactive); in assay [6], 45.4 µM (inactive). Also, the GI50 in [7] was 73.3 µM (inactive); in assay [8], 39 µM (inactive); in assay [9], 67 µM (inactive); in assay [10], 49.2 µM (inactive); in assay [11], > 75 µM (inactive); in assay [12], 15.5 µM (inactive). Besides, the GI50 in assay [13] was > 75 µM (inactive); in assay [14] it was > 75 µM (inactive); in assay [15] it was 29.9 µM (inactive); in assay [16], 33.7 µM (inactive); in assay [17], 58.6 µM (inactive); in assay [18], > 75 µM (inactive). The GI50 in assay [19] and in assay [20] was > 75 µM (inactive) in each case.

Consider `S=C(Nc1ccccn1)Nc1ccccc1Cl`, for which the GI50 in assay [1] is 59.8 µM; in assay [2], > 84.3 µM (inactive); in assay [3], > 48.2 µM (inactive); in [4] it was > 100 µM (inactive); in assay [5], > 100 µM (inactive); in [6], > 61.7 µM (inactive). Moreover, the GI50 in assay [7] was 61.9 µM (inactive); in [8], 32.2 µM (inactive); in assay [9], > 84.5 µM (inactive); in assay [10] it was > 44.4 µM (inactive); in [11], > 80.7 µM (inactive); in assay [12], > 100 µM (inactive). Moreover, the GI50 in assay [13] is 49.9 µM (inactive); in [14], > 100 µM (inactive); in assay [15], 42.4 µM (inactive); in [16] it was 14.7 µM (inactive); in [17] it was > 100 µM (inactive); in assay [18], 56 µM (inactive). For the same compound, the GI50 was > 100 µM (inactive) in [19] and > 71.9 µM (inactive) in assay [20].
